How the values were obtained:
[1] = molecular target: T1, COX-1 (cyclooxygenase enzyme-1) (Ovis aries, UniProt P05979); experiment: in vitro COX-1 enzyme inhibitory assay, single concentration […]; assay type: biochemical; conditions: read-out: Bioassay results / COX-1^a
T1 construct: gene PTGS1
T1 sequence (P05979 25-600): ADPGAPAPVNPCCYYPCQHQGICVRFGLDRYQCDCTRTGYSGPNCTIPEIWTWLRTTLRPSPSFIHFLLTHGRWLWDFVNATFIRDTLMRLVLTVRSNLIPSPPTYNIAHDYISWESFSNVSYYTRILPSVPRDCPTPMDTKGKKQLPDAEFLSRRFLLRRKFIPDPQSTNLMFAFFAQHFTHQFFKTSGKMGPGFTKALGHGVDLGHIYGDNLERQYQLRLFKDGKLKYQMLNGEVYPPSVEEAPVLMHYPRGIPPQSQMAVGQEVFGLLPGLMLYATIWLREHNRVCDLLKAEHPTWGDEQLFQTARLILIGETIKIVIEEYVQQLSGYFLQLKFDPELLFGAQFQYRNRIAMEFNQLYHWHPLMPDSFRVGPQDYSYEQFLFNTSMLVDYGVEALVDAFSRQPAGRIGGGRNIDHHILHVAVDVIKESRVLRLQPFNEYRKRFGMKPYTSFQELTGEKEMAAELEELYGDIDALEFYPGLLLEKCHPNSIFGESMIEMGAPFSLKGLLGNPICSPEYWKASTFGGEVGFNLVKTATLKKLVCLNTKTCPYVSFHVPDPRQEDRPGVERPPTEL

[2] = molecular target: T2, COX-2 (cyclooxygenase enzyme-2) (Homo sapiens, UniProt P35354); experiment: biochemical; conditions: read-out: Bioassay results / COX-2 ^a
T2 construct: gene PTGS2
T2 sequence (P35354 18-604): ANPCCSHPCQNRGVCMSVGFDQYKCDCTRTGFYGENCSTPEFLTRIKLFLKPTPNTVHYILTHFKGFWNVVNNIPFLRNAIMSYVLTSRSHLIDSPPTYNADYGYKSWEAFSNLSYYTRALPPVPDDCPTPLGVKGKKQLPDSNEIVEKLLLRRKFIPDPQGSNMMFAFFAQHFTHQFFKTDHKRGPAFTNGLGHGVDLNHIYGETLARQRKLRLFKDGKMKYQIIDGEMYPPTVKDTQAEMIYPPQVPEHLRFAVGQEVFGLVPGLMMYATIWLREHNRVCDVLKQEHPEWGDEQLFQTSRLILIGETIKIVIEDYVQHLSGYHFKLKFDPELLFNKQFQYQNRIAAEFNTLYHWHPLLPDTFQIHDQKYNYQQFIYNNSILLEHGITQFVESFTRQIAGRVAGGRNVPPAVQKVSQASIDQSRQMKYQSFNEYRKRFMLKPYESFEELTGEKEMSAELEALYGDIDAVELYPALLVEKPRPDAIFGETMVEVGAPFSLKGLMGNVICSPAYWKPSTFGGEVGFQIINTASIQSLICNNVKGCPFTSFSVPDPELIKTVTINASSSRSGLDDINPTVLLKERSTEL

[3] = molecular target: T1, COX-1 (cyclooxygenase enzyme-1); experiment: biochemical; conditions: read-out: Bioassay results / COX-1^a
[4] = molecular target: T1, COX-1 (cyclooxygenase enzyme-1); experiment: biochemical; design: In vitro cyclooxygenase (COX-1 and COX-2) enzyme inhibition assay, percent inhibition; conditions: read-out: % inhibition
Procedure: (see S1 File for experimental details). To evaluate the health-beneficial activity of the sea lamprey compounds, we included all isolates of sea lamprey extract for the evaluation of in vitro antiinflammatory and antioxidant activities. […] (S1 File). […] Antiinflammatory activities of arginine, tyrosine, tryptophan, asparagine and inosine were assayed at 50 μg/mL concentration.

[5] = molecular target: T2, COX-2 (cyclooxygenase enzyme-2); experiment: biochemical; design: In vitro cyclooxygenase (COX-1 and COX-2) enzyme inhibition assay, percent inhibition; conditions: read-out: % inhibition
[6] = design: Fe2+-induced liposome lipid peroxidation; per cent inhibition measured as loss of fluorescent probe signal; conditions: large unilamellar vesicles; LPO (lipid peroxidation of large unilamellar liposomes, Fe2+-initiated); 25 ug/mL; inhibitor
Procedure: Pure compounds and positive controls were assayed for LPO inhibitory activities according to published procedures from our laboratory (see S1 File for experimental details). The antioxidant assay, the lipid peroxidation inhibitory (LPO) assay, used in this study measures free radical scavenging capability of pure compounds and extracts. In this assay, peroxidation of the lipid was initiated by the addition of Fe^2+ resulting in the generation of radicals, which cause the peroxidation of LUV and in turn the fluorescent probes embedded in it. The loss of fluorescent intensity in the assay indicates the oxidative damage to the lipid component of the LUV [11–15, 21] (S1 File). At 25 μg/mL concentration, cholesteryl palmitate, cholesteryl oleate, cholesteryl eicosapentaenoate and cholesteryl arachidonate inhibited LPO by 38, 60, 72 and 82%, respectively (Table 2) (Fig S in S1 File). The most abundant steroidal compound in sea lamprey was cholesterol and it lacked LPO inhibitory activity. Antioxidant activity profiles of the cholesterol esters were like its antiinflammatory profiles. That is, an increase in chain length and unsaturation increased the LPO activity. Majority of the lipophilic fraction of the sea lamprey extract consisted of glycerides and free fatty acids.

## CC(C)Cc1ccc(C(C)C(=O)O)cc1 (centres unmarked) [compound 4, Ibuprofen]
[1]
  inhibition at 15 µg/mL: 56.4%

## COc1ccc2cc([C@H](C)C(=O)O)ccc2c1 [compound 3, Naproxen]
[2]
  inhibition at 12 µg/mL: 60.5%
[3]
  inhibition at 12 µg/mL: 61.4%

## CC/C=C\C/C=C\C/C=C\C/C=C\C/C=C\CCCC(=O)O[C@H]1CC[C@@]2(C)C(=CC[C@H]3[C@@H]4CC[C@H]([C@H](C)CCCC(C)C)[C@@]4(C)CC[C@@H]32)C1 [compound 10, Cholesteryl eicosapentaenoate]
[4]
  inhibition at 25 µg/mL: 63.9 ± 2.1%
[5]
  inhibition at 25 µg/mL: 58.5 ± 1.7%
[6]
  % inhibition: 72.0 ± 1.4%

## CC(O)CC(=O)O (stereo not drawn) [compound 46, β-Hydroxybutyric acid]
[6]
  % inhibition: 21.5 ± 0.7%

## N[C@@H](CC(=O)O)C(=O)O [compound 33, Aspartic acid]
[6]
  % inhibition: 36.5 ± 0.7%

## CN(CC(=O)O)C(=N)N [compound 34, Creatine]
[6]
  % inhibition: 16.5 ± 0.7%

## CCCCC/C=C\C/C=C\C/C=C\C/C=C\CCCC(=O)O[C@H]1CC[C@@]2(C)C(=CC[C@H]3[C@@H]4CC[C@H]([C@H](C)CCCC(C)C)[C@@]4(C)CC[C@@H]32)C1 [compound 11, Cholesteryl arachidonate]
[4]
  inhibition at 25 µg/mL: 74.7 ± 0.4%
[5]
  inhibition at 25 µg/mL: 67.9 ± 2.2%
[6]
  % inhibition: 82.0 ± 1.4%

## CCCCCCCC/C=C\CCCCCCCC(=O)O[C@H]1CC[C@@]2(C)C(=CC[C@H]3[C@@H]4CC[C@H]([C@H](C)CCCC(C)C)[C@@]4(C)CC[C@@H]32)C1 [compound 9, Cholesteryl oleate^#]
[6]
  % inhibition: 59.5 ± 0.7%

## O=c1[nH]c(=O)c2nc[nH]c2[nH]1 [compound 37, Xanthine]
[6]
  % inhibition: 22.0 ± 1.4%

Source: PMC8565778, “Evaluation of health benefits of sea lamprey (Petromyzon marinus) isolates using in vitro antiinflammatory and antioxidant assays” (PLoS ONE, 2021)
